Measurements published in patent US20120101015A1, “ANTI-WEAR AGENTS WITH A REDUCED NEUROTOXICITY” (priority 2009, published 2012).
Read-outs that look alike come from different tables or passages of the source.

Assays:
[1] = target: human butyrylcholine esterase (Homo sapiens, UniProt P06276); format: biochemical
Description: A more sensitive assay was used in order to discriminate alkylphenyl diphenyl phosphates, di-alkylphenyl phenyl phosphates and tri-alkylphenyl phosphates based on their potential ability to inhibit BChE.
The assay was essentially the same as that described in Example 2 except that the triaryl phosphate solution to be tested was prepared in pure ethanol instead of in sodium phosphate buffer.
Some experiments were performed with rat liver microsomes (RLM) because human liver microsomes (HLM) were not available in sufficient quantity. However, human butyrylcholine esterase was used in all assays.
Briefly, base stock triarylphosphate solutions were prepared by dissolution or dilution of a triarylphosphate of interest in ethanol at 2.5 mg/ml. Dilution solutions were then prepared in buffer containing 10% ethanol. 7.5 μl of each dilution solution comprising a triarylphosphate was added to a liver microsome mix in phosphate buffer to give a solution comprising microsomes, NADPH (1 mM) and triarylphosphate at a concentration ranging from 0.20 to 25 μg/ml. This pre-incubation was done at room temperature for 20-25 minutes. After incubation, 7.5 μl of BChE solution (at 9.75 μg/ml in phosphate buffer) was added to the resulting microsome-containing solution. The resulting solution was incubated for 20-25 minutes. The BChE residual activity was then measured as described in Example 2 hereabove.
For each triarylphosphates, the percentages of residual BChE activity were determined for triarylphosphate final concentrations ranging from 0.3 μg/ml to 20 μg/ml.
The Durad 125® combination was used as positive control. For reminder, Durad 125 consists in a mixture of meta and para isomers of tricresyl phosphate.

[2] = target: plasma BChE (Rattus norvegicus, UniProt Q9JKC1); settings: oral dose of 240 mg/kg, 24 hours post-dosing
Chain of plasma BChE (Q9JKC1 24-597): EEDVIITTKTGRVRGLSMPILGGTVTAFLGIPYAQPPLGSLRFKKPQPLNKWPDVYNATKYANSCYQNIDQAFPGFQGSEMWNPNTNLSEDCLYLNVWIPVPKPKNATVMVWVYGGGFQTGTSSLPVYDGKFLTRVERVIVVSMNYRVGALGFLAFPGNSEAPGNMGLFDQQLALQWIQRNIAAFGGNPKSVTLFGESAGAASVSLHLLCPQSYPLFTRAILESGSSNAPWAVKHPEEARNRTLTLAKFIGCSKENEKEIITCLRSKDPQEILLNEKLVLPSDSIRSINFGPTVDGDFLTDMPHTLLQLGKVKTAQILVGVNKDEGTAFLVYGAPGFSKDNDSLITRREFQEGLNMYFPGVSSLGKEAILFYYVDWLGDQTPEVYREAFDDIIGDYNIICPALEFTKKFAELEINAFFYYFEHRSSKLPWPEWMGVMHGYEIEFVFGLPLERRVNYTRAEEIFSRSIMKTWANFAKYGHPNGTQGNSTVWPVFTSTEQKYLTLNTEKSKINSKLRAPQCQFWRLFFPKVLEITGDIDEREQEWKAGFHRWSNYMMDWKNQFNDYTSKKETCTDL
Description: The activity of BChE in the plasma of rats was determined following oral administration of 240, 120, 60 and 10 mg/kg of body weight of Durad 125 or tri-para-tert-butyl phosphate at 6 hours postdosing and 24 hours postdosing. Each dose solution was prepared in a corn oil vehicle and administered by gavage. Control animals were administered an appropriate amount of corn oil (witout any triarylphosphate compounds). All animals were fasted for approximately 16 h prior to administration of the dose containing Durad 125, tri-p-t-butylphenyl phosphate or only corn oil.
Three to six animals per time point and per dose were humanely anesthetized, and sacrificed. For each animal, the blood was collected and the plasma was separated by centrifugation. The plasma samples were then stored at −80° C. until performing the BChE activity assay.
The BChE activity assay was performed as previously described according to Ellman et al (Biochem. Pharmacol. 7, 88-95).

[3] = target: human butyrylcholinesterase (BChE) (Homo sapiens, UniProt P06276); experiment: In vitro BChE activity assay after incubation with human liver microsomes and NADPH (Example 2, stock in phosphate buffer); format: biochemical; settings: for BChE residual activity percentage: triaryl phosphate 25 μg/ml, BChE reference activity 3.76 nmol DTNB/min
Chain of human butyrylcholinesterase (BChE) (P06276 29-602): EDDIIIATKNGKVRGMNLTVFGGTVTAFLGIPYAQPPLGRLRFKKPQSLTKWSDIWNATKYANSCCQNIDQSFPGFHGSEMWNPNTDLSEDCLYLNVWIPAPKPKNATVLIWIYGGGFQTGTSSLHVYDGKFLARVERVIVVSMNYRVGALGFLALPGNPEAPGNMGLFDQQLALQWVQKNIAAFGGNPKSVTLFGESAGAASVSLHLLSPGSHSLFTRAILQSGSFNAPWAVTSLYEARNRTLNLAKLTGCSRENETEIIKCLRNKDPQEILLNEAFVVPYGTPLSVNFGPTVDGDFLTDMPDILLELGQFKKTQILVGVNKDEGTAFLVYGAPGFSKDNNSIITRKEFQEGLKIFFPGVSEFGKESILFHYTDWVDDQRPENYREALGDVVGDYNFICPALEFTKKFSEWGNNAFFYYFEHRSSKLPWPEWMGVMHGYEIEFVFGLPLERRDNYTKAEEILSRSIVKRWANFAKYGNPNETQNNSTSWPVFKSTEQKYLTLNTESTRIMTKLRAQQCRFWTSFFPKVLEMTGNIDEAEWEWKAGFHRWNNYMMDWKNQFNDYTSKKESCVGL
Description: As part of the study, the neurotoxicity of triaryl phosphates and combinations thereof was evaluated through an in vitro test using a model enzyme of esterase: the human butyrylcholinesterase. The human butyrylcholinesterase (BChE), or plasma cholinesterase, has an enzyme activity profile close to that of human acetylcholinesterase.
In this assay, triarylphosphates of interest are first incubated with human liver microsomes in the presence of NADPH to enable the production of potential metabolites. The incubation with microsomes is then followed by incubation with purified human BChE in the context of a micro-BChE activity assay.
This in vitro assay thus reproduces the in vivo metabolization of triaryl phosphates in the liver and enables to evaluate the anti-esterase activity of the resulting metabolites.
Six individual preparations of the same amount were collected to form a homogeneous pool representing the variability amongst the individuals, using a Potter-Elvehem Glass-Teflon homogenizer, with a 5 run-procedure in ice.
Mixture samples of 1.7 ml were collected in polypropylene centrifuge tubes, and thereafter stored at −80° C. The measured liver microsome content was 7.83 mg/ml.
A 250 μg/ml triaryl phosphate solution was prepared in a 50 mM sodium phosphate buffer at pH 7.4 by vigorously stirring in a vortex mixer for one minute. […]
The BChE activity is then measured according to the protocol defined by Ellman and al, (Ellman and al., 1961, Biochem Pharmacol, 7: 88-95), modified for use in micro-titration format. […]
Monitoring the TNB formation is effected by measuring the absorbance at 405 nm for 4 minutes at 23° C. with a microplate optical reader such as SpectraMax Plus spectrophotometer.
The BChE residual activity in the presence of triaryl phosphate is then expressed depending on the BChE reference activity, that is to say depending on the BChE activity measured in the presence of liver microsomes and NADPH and in the absence of triaryl phosphate (reference experiment).

[4] = tested on: hens; settings: oral, Weiner and Jortner 1999; cited from earlier work
[5] = human liver microsomes (HLM), concentrations 1 μg/ml to 20 μg/ml
[6] = human liver microsomes, up to 20 μg/ml (FIG. 3a)
[7] = rat liver microsomes (RLM), concentrations 1 μg/ml to 20 μg/ml

Chain of human butyrylcholine esterase (P06276 29-602): as above

Molecule: CC(C)(C)c1ccc(OP(=O)(Oc2ccccc2)Oc2ccc(C(C)(C)C)cc2)cc1 [di-para-tert-butylphenyl phenylphosphate]
- Minimal BChE residual activity [1, 5]: 85.2%
- inhibition of BChE [1, 6]: did not induce a significant inhibition of BChE

Molecule: CC(C)(C)c1ccc(OP(=O)(Oc2ccc(C(C)(C)C)cc2)Oc2ccc(C(C)(C)C)cc2)cc1 [P1, Tri-para-tert-butylphenyl phosphate]
- Minimal BChE residual activity [1, 5]: 90%
- inhibition of BChE [1, 6]: did not induce a significant inhibition of BChE
- Minimal BChE residual activity [1, 7]: >100%
- inhibition of plasma BChE [2]: does not induce BChE inhibition

Molecule: CC(C)(C)c1cccc(OP(=O)(Oc2cccc(C(C)(C)C)c2)Oc2cccc(C(C)(C)C)c2)c1 [tri-meta-tert-butylphenyl phosphate]
- Minimal BChE residual activity [1]: >100%

Molecule: CC(C)c1ccc(OP(=O)(Oc2ccc(C(C)C)cc2)Oc2ccc(C(C)C)cc2)cc1 [P2, Tri-para-isopropylphenyl phosphate]
- Minimal BChE residual activity [1]: >100%
- inhibition of BChE [1]: did not inhibit BChE

Molecule: O=P(Oc1ccccc1)(Oc1ccccc1)Oc1ccccc1 [C7, tri-phenylphosphate]
- BChE inhibiting potential after incubation [3]: non negligible inhibiting potential
- BChE residual activity percentage [3]: 44.8 +/− 10.4%
- neurotoxicity [4]: non neurotoxic or poorly neurotoxic

Molecule: CC(C)c1ccc(OP(=O)(Oc2ccccc2)Oc2ccc(C(C)C)cc2)cc1 [di-para-isopropylphenyl phenylphosphate]
- Minimal BChE residual activity [1, 7]: 76.5%

Molecule: dodecylphenyl diphenyl phosphate
- Minimal BChE residual activity [1, 7]: 16%

Molecule: CC(C)(C)c1ccccc1OP(=O)(Oc1ccccc1C(C)(C)C)Oc1ccccc1C(C)(C)C [tri-ortho-tert-butylphenyl phosphate]
- Minimal BChE residual activity [1]: >100%

Molecule: CC(C)c1ccccc1OP(=O)(Oc1ccccc1C(C)C)Oc1ccccc1C(C)C [P3, Tri-ortho-isopropylphenyl phosphate]
- Minimal BChE residual activity [1]: 72.6%

Molecule: 1-methylnonylphenyl diphenyl phosphate
- Minimal BChE residual activity [1, 7]: 5.2%

Molecule: Cc1ccccc1OP(=O)(Oc1ccccc1C)Oc1ccccc1C [C6, tri-ortho-cresyl phosphate]
- BChE residual activity percentage [3]: very low
- neurotoxicity [4]: highly neurotoxicity

Molecule: CC(C)(C)c1ccc(OP(=O)(Oc2ccccc2)Oc2ccccc2)cc1 [para-tert-butylphenyl diphenyl phosphate]
- Minimal BChE residual activity [1, 5]: 44.9%
- inhibition of BChE ([1]; human liver microsomes, concentrations higher than 5 μg/ml (FIG. 3a)): at least 40%
